Laboratory results: ChEMBL document CHEMBL1132824, “Highly specific inhibitory effect of three-component hybrid liposomes including sugar surfactants on the growth of glioma cells” (Bioorg Med Chem Lett, 2000)

What was measured:
[1] = system: U-251; assay: Compound along with Tween 20 and SucCn was evaluated for inhibitory effect on growth of glioma (U251) cells; Effective; type: functional, cell-based; settings: Homo sapiens
[2] = system: U-251; assay: Compound alone was evaluated for inhibitory effect on growth of glioma (U251) cells; Ineffective; type: functional, cell-based; settings: Homo sapiens

Structure (SMILES)	Activity [1]	Activity [2]
CCCCCCCCCCCCCC(=O)OCC(COP(=O)([O-])OCC[N+](C)(C)C)OC(=O)CCCCCCCCCCCCC (stereo unspecified)	Effective	Ineffective
CCCCCCCCCC(=O)OC[C@@H]1OC(O[C@]2(CO)OC(CO)C(O)[C@@H]2O)[C@@H](O)[C@H](O)[C@H]1O (single isomer, unassigned)	Effective	Ineffective
CCCCCCCCCCCC(=O)OC[C@@H]1O[C@H](O[C@]2(CO)O[C@H](CO)[C@@H](O)[C@@H]2O)[C@@H](O)[C@@H](O)[C@@H]1O	Effective	Ineffective
